For data set [1], the target named is T1, recombinant human 5-HT4 receptor (Homo sapiens, UniProt Q13639).
T1 construct: expressed in transfected cells
Put plainly: Determination of EC50 values for 5-HT4 receptor (CRE-luciferase reporter, CHO cells). Conditions: stable CHO cell line expressing recombinant human 5-HT4 receptor and pCRE-Luc reporter; 4 hours incubation; luciferase activity. The data set is classed as cell-based. Here is the method:
A stable CHO cell line expressing recombinant human 5-HT4 receptor and pCRE-Luc reporter system was used for cell-based assay. The assay offers a non-radioactive based approach to determine binding of a compound to GPCRs. In this specific assay, the level of intracellular cyclic AMP which is modulated by activation or inhibition of the receptor is measured. The recombinant cells harbor luciferase reporter gene under the control of cAMP response element.
The above cells were grown in 96 well clear bottom white plates in Hams F12 medium containing 10% fetal bovine serum (FBS). Prior to the addition of compounds or standard agonist, cells were serum starved overnight. Increasing concentrations of test compounds were added in OptiMEM medium to the cells. The incubation was continued at 37° C. in CO2 incubator for 4 hours. Medium was removed and cells were washed with phosphate buffered saline. The cells were lysed and luciferase activity was measured in a Luminometer. Luminescence units were plotted against the compound concentrations using Graphpad software. EC50 values of the compounds were defined as the concentration required in stimulating the luciferase activity by 50%.

The nature of data set [2]: Rodent pharmacokinetic study. It is filed as in vivo. Conditions: Wistar, rat, plasma, Wister/Male rats, 5 mg/kg; for bioavailability: Oral versus Intravenous; for AUC(0-t) / Cmax / Tmax / half-life: vehicle Water. Here is the method:
Male Wister rats (230-280 grams) obtained from NIN (National Institute of Nutrition, Hyderabad, India) was used as an experimental animal. Three to five animals were housed in each cage. One day prior to dosing day, male wistar rats (225-250 grams) were anesthetized with isoflurane for surgical placement of jugular vein catheter. Animals were kept fasted over night and maintained on a 12 hours light/dark cycle. Three rats were dosed NCE (5 mg/Kg) orally and intravenously on day 0 and day 2.
At each time point blood was collected by jugular vein. Plasma was stored frozen at −20° C. until analysis. The concentrations of the NCE compound in plasma were determined using LC-MS/MS method. Schedule time points: Pre dose 0.25, 0.5, 1, 1.5, 2, 3, 4, 6, 8, 10, 12 and 24 hours after dosing (n=3). The NCE compounds were quantified in plasma by validated LC-MS/MS method using solid phase extraction technique. NCE compounds were quantified in the calibration range of 2-2000 ng/mL in plasma. Study samples were analyzed using calibration samples in the batch and quality control samples spread across the batch.
Pharmacokinetic parameters Cmax, Tmax, AUCt, T1/2 and Bioavailability were calculated by non-compartmental model using software WinNonlin version 5.0.1.

Data set [3] is described as follows: Rodent brain penetration study. Conditions: Wistar, rat; Wister/Male rats, 10 mg/kg, Oral, vehicle Water; brain/plasma; read-out: Steady State Brain Penetration (Cb/Cp). It is filed as in vivo. The procedure:
Male Wister rats (230-280 grams) obtained from NIN (National Institute of Nutrition, Hyderabad, India) was used as an experimental animal. Three animals were housed in each cage. Animals were given water and food ad libitum throughout the experiment, and maintained on a 12 hours light/dark cycle.
Brain penetration was determined in discrete manner in rats. One day prior to dosing day, male wistar rats (225-250 grams) were acclimatized. After acclimatization the rats were grouped according to the weight in each group, 3 animals were kept in individual cage and allowed free access to food and water. At each time point (0.5, 1, and 2 hours) n=3 animals were used.
NCE compound was dissolved in water and administered orally at (free base) 10 mg/kg. Blood samples were removed via, cardiac puncture by using isofurane anesthesia the animals were sacrificed to collect brain tissue. Plasma was separated and Brain samples were homogenized and stored frozen at −20° C. until analysis. The concentrations of the NCE compound in plasma and Brain were determined using LC-MS/MS method.
The NCE compounds were quantified in plasma and brain homogenate by validated LC-MS/MS method using solid phase extraction technique. NCE compounds were quantified in the calibration range of 1-500 ng/mL in plasma and brain homogenate. Study samples were analyzed using calibration samples in the batch and quality control samples spread across the batch. Extents of brain-blood ratio were calculated (Cb/Cp).

Data set [4] has as its system novel object recognition (cognition) in rats. Put plainly: Object recognition task model. The data set is classed as in vivo, rat. Conditions: 10 mg/kg p.o.; for Exploration time mean ± S.E.M, Familiar object / Exploration time mean ± S.E.M, Novel object: choice trial T2 24 hours after T1. Here is the method: The cognition-enhancing properties of compounds of this invention were estimated using a model of animal cognition: the object recognition task model.
Male Wister rats (230-280 grams) obtained from N. I. N. (National Institute of Nutrition, Hyderabad, India) was used as experimental animals. Four animals were housed in each cage. Animals were kept on 20% food deprivation before one day and given water ad libitum throughout the experiment and maintained on a 12 hours light/dark cycle. Also the rats were habituated to individual arenas for 1 hour in the absence of any objects.
One group of 12 rats received vehicle (1 mL/Kg) orally and another set of animals received compound of the formula (I) either orally or i.p., before one hour of the familiar (T1) and choice trial (T2).
The experiment was carried out in a 50×50×50 cm open field made up of acrylic. In the familiarization phase (T1), the rats were placed individually in the open field for 3 minutes, in which two identical objects (plastic bottles, 12.5 cm height×5.5 cm diameter) covered in yellow masking tape alone (a1 and a2) were positioned in two adjacent corners, 10 cm. from the walls. After 24 hours of the (T1) trial for long-term memory test, the same rats were placed in the same arena as they were placed in (T1) trial. Choice phase (T2) rats were allowed to explore the open field for 3 minutes in presence of one familiar object (a3) and one novel object (b) (Amber color glass bottle, 12 cm high and 5 cm in diameter). Familiar objects presented similar textures, colors and sizes. During the T1 and T2 trial, explorations of each object (defined as sniffing, licking, chewing or having moving vibrissae whilst directing the nose towards the object at a distance of less than 1 cm) were recorded separately by stopwatch. Sitting on an object was not regarded as exploratory activity, however, it was rarely observed.
T1 is the total time spent exploring the familiar objects (a 1+a2).
T2 is the total time spent exploring the familiar object and novel object (a3+b).
The object recognition test was performed as described by Ennaceur, A., Delacour, J., 1988, A new one-trial test for neurobiological studies of memory in rats—Behavioural data, Behav. Brain Res., 31, 47-59.

The results in this text go back to patent publication US8598204B2, “1,2-dihydro-2-oxoquinoline compounds as 5-HT4 receptor ligands” (Suven Life Sciences Limited, priority 2009, dated 2013).

T1 sequence (Q13639 whole entry): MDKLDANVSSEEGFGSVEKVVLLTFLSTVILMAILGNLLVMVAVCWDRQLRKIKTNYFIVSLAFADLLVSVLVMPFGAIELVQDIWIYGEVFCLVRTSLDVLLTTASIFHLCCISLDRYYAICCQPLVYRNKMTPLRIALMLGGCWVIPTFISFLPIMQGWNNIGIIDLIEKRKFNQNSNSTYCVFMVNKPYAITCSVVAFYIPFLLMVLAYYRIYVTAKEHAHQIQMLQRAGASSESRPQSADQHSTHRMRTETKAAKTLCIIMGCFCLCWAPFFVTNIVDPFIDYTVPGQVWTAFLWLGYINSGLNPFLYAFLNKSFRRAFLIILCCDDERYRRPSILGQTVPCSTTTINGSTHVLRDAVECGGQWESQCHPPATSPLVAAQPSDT

Take `CC(C)n1c(=O)c(C(=O)NCCCN2C3CC4CC(C3)CC2C4)c(O)c2ccccc21.Cl` [Example 1, N-[(2-Azatricyclo[3.3.1.1^3,7]dec-2-yl)propyl]-4-hydroxy-1-isopropyl-2-oxo-1,2-dihydroquinoline-3-carboxamide hydrochloride]: the EC50 in data set [1] amounted to 230 nM. The same molecule returned a bioavailability in data set [2] of 26 ± 11%. For the same molecule, in data set [2] (Intravenous), the AUC(0-t) amounted to 3020 ± 980 ng·h/mL, the concentration peaked (Cmax) at 1170 ± 241 ng/mL, the Tmax came to 0.08 h and the half-life was 1.88 ± 1.15 h. Further, in data set [2] (Oral), the AUC(0-t) came to 801 ± 105 ng·h/mL, the peak level (Cmax) was 211 ± 32 ng/mL, the Tmax turned out to be 0.83 ± 0.29 h and the half-life was 2.37 ± 0.6 h. In addition, the Kp in data set [3] amounted to 0.2 ± 0.04. Also, in data set [4], the Inference entry is listed as “Active”; the “Exploration time mean ± S.E.M, Familiar object” value came out at 7.87 ± 0.83 s; the “Exploration time mean ± S.E.M, Novel object” value came out at 12.56 ± 1.31 s.

With `CC(C)n1c(=O)c(C(=O)NCCCN2C3CC4CC2CC(O)(C4)C3)c(O)c2ccccc21` [Example 4, N-[(5-Hydroxy-2-azatricyclo[3.3.1.1^3,7]dec-2-yl)propyl]-4-hydroxy-1-isopropyl-2-oxo-1,2-dihydroquinoline-3-carboxamide], the EC50 in data set [1] stood at 421 nM. The molecule further gave a bioavailability in data set [2] of 34 ± 6%. Besides, in data set [2] (Intravenous), the area under the curve AUC(0-t) turned out to be 1660 ± 498 ng·h/mL, the concentration peaked (Cmax) at 803 ± 62 ng/mL, the Tmax was determined as 0.08 h and the half-life was 2.64 ± 0.89 h. Besides, in data set [2] (Oral), the AUC(0-t) came to 547 ± 126 ng·h/mL, the concentration peaked (Cmax) at 216 ± 78 ng/mL, the Tmax was 0.33 h and the half-life was 1.8 ± 0.36 h. Further, the Kp in data set [3] was 0.66 ± 0.1. Moreover, in data set [4], the Inference entry is on record as “Active”; the “Exploration time mean ± S.E.M, Familiar object” value amounted to 6.72 ± 1.92 s; the “Exploration time mean ± S.E.M, Novel object” value was determined as 11.86 ± 1.65 s.

In the case of `CC(C)n1c(=O)c(C(=O)NC23CC4CC(C2)N(C)C(C4)C3)c(O)c2ccccc21` [Example 14, N-(2-Methyl-2-azatricyclo[3.3.1.1^3,7]dec-5-yl)-4-hydroxy-1-isopropyl-2-oxo-1,2-dihydro-quinoline-3-carboxamide], the EC50 in data set [1] was 307 nM. The bioavailability in data set [2] is 28 ± 3%. In addition, in data set [2] (Intravenous), the exposure AUC(0-t) was 820 ± 247 ng·h/mL, the highest level (Cmax) was 523 ± 57 ng/mL, the Tmax turned out to be 0.08 h and the half-life is 3.31 ± 1.47 h. In addition, in data set [2] (Oral), the AUC(0-t) was found to be 223 ± 50 ng·h/mL, the Cmax amounted to 67 ± 17 ng/mL, the Tmax worked out at 0.42 ± 0.14 h and the half-life was 1.67 ± 0.27 h. Besides, in data set [3], the Kp was found to be 2.97 ± 0.94.
